Source: publication PMC12735872, “Development of ^18F/^11C-Labeled Pyrrolo-Pyridine/Pyrimidine LRRK2 Selective PET Radioligands” (Pharmaceuticals, 2025)
Read-outs that look alike come from different tables or passages of the source.

Legend:
LRRK2 [1] = biological target: T1, LRRK2 (Homo sapiens, UniProt Q5S007); test: In vitro autoradiography, human whole-hemisphere brain slices; type: binding; settings: human brain slices; cold compound 10 µM
T1 construct: Human brains without pathological findings were acquired from the National Institute of Forensic Medicine; from tissue; host or cells: human post-mortem control brain, whole-hemisphere sections (100 µm)
T1 sequence (Q5S007 whole entry): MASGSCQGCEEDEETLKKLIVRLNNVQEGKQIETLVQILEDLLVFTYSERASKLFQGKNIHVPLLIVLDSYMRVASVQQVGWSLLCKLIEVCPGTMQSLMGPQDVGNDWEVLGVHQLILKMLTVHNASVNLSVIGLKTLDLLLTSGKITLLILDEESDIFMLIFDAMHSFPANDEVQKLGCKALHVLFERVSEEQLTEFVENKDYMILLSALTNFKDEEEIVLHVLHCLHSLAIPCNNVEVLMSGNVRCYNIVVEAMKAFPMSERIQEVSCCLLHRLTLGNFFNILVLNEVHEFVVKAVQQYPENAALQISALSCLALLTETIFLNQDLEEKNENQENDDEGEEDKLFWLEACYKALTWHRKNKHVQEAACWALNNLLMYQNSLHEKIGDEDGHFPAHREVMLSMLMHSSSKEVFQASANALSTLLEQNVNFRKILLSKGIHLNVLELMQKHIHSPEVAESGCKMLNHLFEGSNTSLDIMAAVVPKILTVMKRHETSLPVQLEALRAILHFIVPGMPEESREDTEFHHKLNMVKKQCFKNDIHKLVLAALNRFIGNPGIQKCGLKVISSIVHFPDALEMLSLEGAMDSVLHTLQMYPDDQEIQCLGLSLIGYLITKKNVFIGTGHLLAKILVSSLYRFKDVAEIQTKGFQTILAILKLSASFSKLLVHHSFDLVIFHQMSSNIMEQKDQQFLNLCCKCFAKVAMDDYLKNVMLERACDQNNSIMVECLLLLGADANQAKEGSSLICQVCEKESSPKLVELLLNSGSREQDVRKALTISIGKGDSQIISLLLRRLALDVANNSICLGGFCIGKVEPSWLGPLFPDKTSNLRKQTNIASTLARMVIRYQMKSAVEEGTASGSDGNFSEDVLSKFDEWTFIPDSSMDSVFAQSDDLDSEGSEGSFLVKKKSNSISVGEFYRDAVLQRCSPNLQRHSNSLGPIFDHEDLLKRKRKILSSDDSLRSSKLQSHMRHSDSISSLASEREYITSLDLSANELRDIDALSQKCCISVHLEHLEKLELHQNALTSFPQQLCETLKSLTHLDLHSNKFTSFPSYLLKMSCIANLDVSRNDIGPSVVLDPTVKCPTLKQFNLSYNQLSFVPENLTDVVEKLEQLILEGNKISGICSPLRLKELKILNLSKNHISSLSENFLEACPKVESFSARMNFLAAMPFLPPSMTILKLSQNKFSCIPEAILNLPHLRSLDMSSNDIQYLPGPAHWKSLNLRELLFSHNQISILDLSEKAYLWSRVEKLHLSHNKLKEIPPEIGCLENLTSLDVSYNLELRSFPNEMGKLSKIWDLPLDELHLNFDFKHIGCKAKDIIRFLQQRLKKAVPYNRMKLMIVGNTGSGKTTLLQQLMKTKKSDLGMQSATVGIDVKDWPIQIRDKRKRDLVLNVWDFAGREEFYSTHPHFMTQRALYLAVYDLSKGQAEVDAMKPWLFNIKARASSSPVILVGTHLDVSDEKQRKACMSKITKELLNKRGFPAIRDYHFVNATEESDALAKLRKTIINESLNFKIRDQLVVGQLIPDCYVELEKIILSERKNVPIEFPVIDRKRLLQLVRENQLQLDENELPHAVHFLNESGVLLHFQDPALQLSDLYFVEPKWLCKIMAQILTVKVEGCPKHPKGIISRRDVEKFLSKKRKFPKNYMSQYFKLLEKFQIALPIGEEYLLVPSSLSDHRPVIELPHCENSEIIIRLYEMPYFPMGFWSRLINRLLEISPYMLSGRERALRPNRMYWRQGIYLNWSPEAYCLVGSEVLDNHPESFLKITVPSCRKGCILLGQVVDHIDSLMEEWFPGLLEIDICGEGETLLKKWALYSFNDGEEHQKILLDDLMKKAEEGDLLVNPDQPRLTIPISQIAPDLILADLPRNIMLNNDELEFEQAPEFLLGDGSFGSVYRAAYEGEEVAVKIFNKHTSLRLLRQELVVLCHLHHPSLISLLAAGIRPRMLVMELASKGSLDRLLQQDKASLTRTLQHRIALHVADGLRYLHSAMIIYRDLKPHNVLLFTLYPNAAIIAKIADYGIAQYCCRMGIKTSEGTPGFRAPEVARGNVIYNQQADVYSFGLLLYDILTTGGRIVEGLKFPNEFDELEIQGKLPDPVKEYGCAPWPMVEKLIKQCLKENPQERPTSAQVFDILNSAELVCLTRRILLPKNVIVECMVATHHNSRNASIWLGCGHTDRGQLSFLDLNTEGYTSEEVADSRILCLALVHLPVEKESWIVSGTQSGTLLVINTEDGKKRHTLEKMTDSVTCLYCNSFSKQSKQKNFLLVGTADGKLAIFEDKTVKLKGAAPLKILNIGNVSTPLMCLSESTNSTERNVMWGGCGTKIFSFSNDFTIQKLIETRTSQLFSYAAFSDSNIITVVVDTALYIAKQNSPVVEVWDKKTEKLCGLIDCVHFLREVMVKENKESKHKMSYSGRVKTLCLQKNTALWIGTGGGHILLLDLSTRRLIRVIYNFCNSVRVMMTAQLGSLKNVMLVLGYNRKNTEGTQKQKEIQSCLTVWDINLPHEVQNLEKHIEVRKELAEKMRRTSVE
Method: Human brains without pathological findings were acquired from the National Institute of Forensic Medicine at Karolinska Institutet in Stockholm, Sweden. These brains were obtained during forensic autopsies (designated as control brain) and were processed in a manner like previously described methods. […] The brain was removed, and its tissues were kept in −85 °C until the sectioning process. The whole brain hemispheric slices were subsequently maintained at −25 °C until the commencement of autoradiography procedures. […] The sectioning of the brain and the autoradiography experiments were performed at the Psychiatry section, Department of Neuroscience, Karolinska Institutet, Sweden.
(§1) Whole brain hemispheres were sectioned into horizontal slices with a thickness of 100 µm using a Leica cryomacrocut system. The autoradiographic procedures followed the same protocols established in previous studies conducted in our laboratory. The whole-hemisphere sections of 100 micron thickness were incubated for 90 min at room temperature with their corresponding radiotracer (4 MBq/200 mL) in TRIS buffer (pH 7.4) containing sodium chloride (120 mM), potassium chloride (5 mM), calcium chloride (2 mM), and albumin (0.1% w/v). After incubation, sections were washed three times in the same buffer at room temperature for five minutes each, briefly dipped in ice-cold distilled water, dried, and then placed in the phosphor imaging plates. Binding density standards were prepared by serial dilution of the radioligand stock solution in the assay buffer. Readings were taken with the Fujifilm BAS-5000 (Fujifilm, Tokyo, Japan), while quantitative analysis was conducted with the Multi Gauge 3.2 image analysis software (Fujifilm, Tokyo, Japan). For blocking experiments, adjacent brain sections were co-incubated with LuAF66583 (0.1 µM or 10 µM).

LRRK2 G2019S = LRRK2 G2019S (Homo sapiens, UniProt Q5S007, G2019S); test: LRRK2 G2019S Lanthascreen; type: biochemical
LRRK2 G2019S, sequence (Q5S007 whole entry G2019S): as the sequence (Q5S007 whole entry) above, with G2019S counted along it

[2] = Free fraction in brain homogenate (fb); type: in vitro ADME; settings: method ref. 18
From the text: (§2) Table 1 LRRK2 wild-type (WT) and G2019S Lanthascreen, MDR1-MDCK permeability (Papp A:B), and efflux ratio (B:A/A:B), free fractions in plasma (fp) and brain homogenate (fb) and PET Multi-Parameter Optimization (MPO) score of Compounds 1, 2, and 3. | column: fb ^3 (%)

[3] = Free fraction in plasma (fp); type: in vitro ADME; settings: method ref. 18
From the text: Table 1 LRRK2 wild-type (WT) and G2019S Lanthascreen, MDR1-MDCK permeability (Papp A:B), and efflux ratio (B:A/A:B), free fractions in plasma (fp) and brain homogenate (fb) and PET Multi-Parameter Optimization (MPO) score of Compounds 1, 2, and 3. | column: fp ^3 (%)

MDR1 (P-gp) = test: MDR1-MDCK permeability and efflux ratio; type: in vitro ADME; settings: dog, assay described in ref. 17; for Papp A→B: MDCK-MDR1; for efflux ratio: MDR1-MDCK, read-out: B:A/A:B (efflux ratio)
From the text: as §2, with “Papp A:B ^2 (MDR1-MDCK) (cm/s × 10^−6); B:A/A:B ^2” for “fb ^3 (%)”

LRRK2 [4] = test: In vitro autoradiography, NHP brain slices; type: binding; settings: cold compound 10 µM
Method: as §1, with “µM). […] The thickness differed from human tissue (20 µm).” for “µM).”

LRRK2 wild-type (WT) = LRRK2 wild-type (WT) (Homo sapiens, UniProt Q5S007); test: LRRK2 wild-type Lanthascreen; type: biochemical
LRRK2 wild-type (WT), sequence (Q5S007 whole entry): as the sequence (Q5S007 whole entry) above

With `C[C@@H]1C[C@@H](F)CN1c1c(C#N)c2c(N)nccc2n1C` [Compound 1, 4-Amino-2-((2R,4R)-4-fluoro-2-methylpyrrolidin-1-yl)-1-methyl-1H-pyrrolo[3,2-c]pyridine-3-carbonitrile] as the compound, how does the “Blocking of [^18F]1 binding (ARG)” value (LRRK2 [1]) read?
Its value is “effectively blocked”.

And the Ki (LRRK2 G2019S; assay described in ref. 16, read-out: LRRK2 Lanthascreen G2019S cKi)?
Its Ki is 1 nM.

What about the fraction unbound [2] of the same compound?
The fraction unbound was 0.13.

And the fraction unbound [3]?
The fraction unbound was 0.38.

What about the Papp A→B (MDR1 (P-gp)) of the same compound?
The Papp A→B was 31 ×10⁻⁶ cm/s.

What about the efflux ratio (MDR1 (P-gp)) of the same compound?
Its efflux ratio is 0.66.

And the “Blocking of [^18F]1 binding (ARG)” value (LRRK2 [4])?
Its value is “effectively blocked”.

What about the Ki (LRRK2 wild-type (WT); assay described in ref. 16, read-out: LRRK2 Lanthascreen WT cKi) of the same compound?
The Ki was 0.7 nM.

What does the source list for `C[C@@H]1CCCN1c1c(C#N)c2c(N)nc(Nc3cnn(C)c3)nc2n1C` [Compound 3, (R)-4-amino-7-methyl-2-((1-methyl-1H-pyrazol-4-yl)amino)-6-(2-methylpyrrolidin-1-yl)-7H-pyrrolo[2,3-d]pyrimidine-5-carbonitrile]?
Blocking of [^18F]1 binding (ARG) (LRRK2 [1]): effectively blocked; Ki (LRRK2 G2019S): 0.28 nM; fraction unbound [2]: 0.012; fraction unbound [3]: 0.04; Papp A→B (MDR1 (P-gp)): 17 ×10⁻⁶ cm/s; efflux ratio (MDR1 (P-gp)): 0.8; Blocking of [^18F]1 binding (ARG) (LRRK2 [4]): effectively blocked; Ki (LRRK2 wild-type (WT)): 0.14 nM
